This passage reports Activity results from ChEMBL document CHEMBL3045600, “Synthesis and Fungicidal Activities of Phenoxyphenyl Alkoxyiminoacetamide Derivatives” (J Pestic Sci, 1998).

Holding throughout (type): functional
The test system of test [1] is Podosphaera fuliginea. The test is described as follows: Fungicidal activity against Podosphaera fuliginea assessed as cucumber powdery mildew control under greenhouse at 2 ppm foliar application 24 hr before inoculation on upper surface of leaf at 23 +/- 2 degC by preventive manner.
Test [2] has as its system Pseudoperonospora cubensis. The test is described as follows: Fungicidal activity against Pseudoperonospora cubensis assessed as cucumber downy mildew disease control at 125 ppm foliar application 24 hr before inoculation on upper surface of leaf by preventive manner.
The test system of test [3] is Thanatephorus cucumeris. Kind of test: Fungicidal activity against Thanatephorus cucumeris assessed as rice sheath blight disease control at 2 ppm foliar application for 24 hr before inoculation at 26 +- 2 measured after 5 days by preventive manner.
Test [4] has as its system Thanatephorus cucumeris. The test is described as follows: Fungicidal activity against Thanatephorus cucumeris assessed as rice sheath blight disease control at 7.8 ppm foliar application for 24 hr before inoculation at 26 +- 2 measured after 5 days by preventive manner.
The subject of test [5] is Pseudoperonospora cubensis. Kind of test: Fungicidal activity against Pseudoperonospora cubensis assessed as cucumber downy mildew disease control at 31.3 ppm foliar application 24 hr before inoculation on upper surface of leaf by preventive manner.
Test [6] has as its system Pseudoperonospora cubensis. The test is described as follows: Fungicidal activity against Pseudoperonospora cubensis assessed as cucumber downy mildew disease control at 7.8 ppm foliar application 24 hr before inoculation on upper surface of leaf by preventive manner.
The test system of test [7] is Podosphaera fuliginea. Kind of test: Fungicidal activity against Podosphaera fuliginea assessed as cucumber powdery mildew control under greenhouse at 31.3 ppm foliar application 24 hr before inoculation on upper surface of leaf at 23 +/- 2 degC by preventive manner.
Test [8] has as its system Podosphaera fuliginea. Kind of test: Fungicidal activity against Podosphaera fuliginea assessed as cucumber powdery mildew control under greenhouse at 125 ppm foliar application 24 hr before inoculation on upper surface of leaf at 23 +/- 2 degC by preventive manner.
Test [9] concerns Pseudoperonospora cubensis. The test is described as follows: Fungicidal activity against Pseudoperonospora cubensis assessed as cucumber downy mildew disease control at 2 ppm foliar application 24 hr before inoculation on upper surface of leaf by preventive manner.
In test [10] the test system is Thanatephorus cucumeris. The test is described as follows: Fungicidal activity against Thanatephorus cucumeris assessed as rice sheath blight disease control at 125 ppm foliar application for 24 hr before inoculation at 26 +- 2 measured after 5 days by preventive manner.
Test [11] relates to Podosphaera fuliginea. Kind of test: Fungicidal activity against Podosphaera fuliginea assessed as cucumber powdery mildew control under greenhouse at 7.8 ppm foliar application 24 hr before inoculation on upper surface of leaf at 23 +/- 2 degC by preventive manner.
The subject of test [12] is Thanatephorus cucumeris. Kind of test: Fungicidal activity against Thanatephorus cucumeris assessed as rice sheath blight disease control at 31.3 ppm foliar application for 24 hr before inoculation at 26 +- 2 measured after 5 days by preventive manner.

As for `CNC(=O)/C(=N/OC)c1ccccc1OCc1ccccc1`, the Activity in [1], in [2], in test [3], in [4], in test [5] and in [6] was 70% each time. The Activity in [7], in test [8], in [9], in test [10], in test [11] and in test [12] was 70% throughout.
In the case of `CCO/N=C(/C(=O)NC)c1ccccc1Oc1ccccc1`, the Activity in test [1] is reported as 70%; in [2] it was less than 70%; in [3] it was less than 70%; in test [4] it was less than 70%; in [5] it was less than 70%; in [6], less than 70%. Further, the Activity is given as 70% in test [7]; 70% in test [8]; less than 70% in test [9]; less than 70% in test [10]; 70% in test [11]; less than 70% in [12].
As for `CNC(=O)/C(=N/OC)c1ccccc1C(=O)c1ccccc1`, the Activity in [1], in test [2], in test [3], in [4], in [5] and in [6] was less than 70% throughout. The Activity in test [7], in test [8], in [9], in test [10], in test [11] and in test [12] was less than 70% each time.
As for `CNC(=O)/C(=N/OC)c1cc(OC)ccc1Oc1ccccc1`, the Activity in test [1], in test [2], in test [3], in [4], in test [5] and in [6] was 70% throughout. Further, the Activity in test [7], in test [8], in [9], in test [10], in [11] and in test [12] was 70% each time.
Take `CO/N=C(/C(N)=O)c1ccccc1Oc1ccccc1`: the Activity in test [2], in [3], in [4], in [5], in [6] and in test [9] was less than 70% in each case. In addition, the Activity in test [10] and in test [12] was less than 70% throughout.
With `CNC(=O)/C(=N/OC)c1ccccc1NCc1ccccc1`, the Activity in [1], in test [2], in test [3], in test [4], in test [5] and in [6] was less than 70% in each case. Further, the Activity in test [7], in test [8], in test [9], in test [10], in [11] and in [12] was less than 70% each time.
For the compound `CNC(=O)/C(=N/OC)c1c(OC)cccc1Oc1ccccc1`, the Activity in [1], in [2], in test [3], in [4], in test [5] and in test [6] was less than 70% throughout. The Activity in test [7], in [8], in test [9], in [10], in test [11] and in test [12] was less than 70% each time.
Consider `CNC(=O)/C(=N/OC)c1ccccc1/C=C\c1ccccc1`, for which the Activity in test [1], in [2], in test [3], in test [4], in [5] and in test [6] was 70% each time. Also, the Activity in test [7], in test [8], in test [9], in test [10], in test [11] and in test [12] was 70% throughout.
Consider `CNC(=O)/C(=N/OC)c1ccccc1CCc1ccccc1`, for which the Activity in test [1] is on record as 70%; in test [2], less than 70%; in test [3] it was less than 70%; in test [4], less than 70%; in test [5] it was less than 70%; in test [6], less than 70%. Also, the Activity in test [7] is given as 70%; in test [8], 70%; in test [9], less than 70%; in [10], less than 70%; in [11], 70%; in [12], less than 70%.
As for `CO/N=C(/C(=O)N(C)C)c1ccccc1Oc1ccccc1`, the Activity in test [1] was 70%; in test [2], less than 70%; in test [3] it was 70%; in test [4], 70%; in test [5], less than 70%; in [6], less than 70%. Moreover, the Activity is 70% in test [7]; 70% in [8]; less than 70% in [9]; 70% in [10]; 70% in [11]; 70% in test [12].
For `CNC(=O)/C(=N/O)c1ccccc1Oc1ccccc1`, the Activity in test [1], in test [2], in [3], in test [4], in [5] and in test [6] was less than 70% in each case. Also, the Activity in test [7], in test [8], in test [9], in test [10], in test [11] and in test [12] was less than 70% in each case.
On to `CNC(=O)/C(=N/OC)c1cc(C)ccc1Oc1ccccc1`, for which the Activity in test [1], in test [2], in [3], in test [4], in [5] and in test [6] was 70% in each case. The Activity in test [7], in [8], in test [9], in test [10], in test [11] and in [12] was 70% each time.
As to `CNC(=O)/C(=N/OC)c1ccccc1/C=C/c1ccccc1`, the Activity was 70% in [1]; 70% in test [2]; less than 70% in test [3]; less than 70% in test [4]; 70% in test [5]; 70% in test [6]. Besides, the Activity in test [7] is 70%; in [8], 70%; in test [9], 70%; in [10] it was less than 70%; in [11], 70%; in [12], less than 70%.
In the case of `CCNC(=O)/C(=N/OC)c1ccccc1Oc1ccccc1`, the Activity in [1] is reported as 70%; in test [2], less than 70%; in test [3] it was 70%; in test [4], 70%; in test [5], less than 70%; in [6], less than 70%. Also, the Activity is given as 70% in test [7]; 70% in test [8]; less than 70% in [9]; 70% in [10]; 70% in test [11]; 70% in test [12].
As to `CNC(=O)/C(=N/OC)c1ccccc1C(=O)Oc1ccccc1`, the Activity in [1] is 70%; in test [2], less than 70%; in test [3], less than 70%; in test [4] it was less than 70%; in test [5], less than 70%; in [6], less than 70%. In addition, the Activity in test [7] was 70%; in test [8], 70%; in test [9], less than 70%; in test [10], less than 70%; in test [11], 70%; in test [12], less than 70%.
Take `CNC(=O)/C(=N/OC)c1ccccc1COc1ccccc1`: the Activity was 70% in test [1]; less than 70% in test [2]; less than 70% in [3]; less than 70% in [4]; less than 70% in [5]; less than 70% in [6]. Further, the Activity is listed as 70% in [7]; 70% in test [8]; less than 70% in [9]; less than 70% in test [10]; 70% in [11]; less than 70% in [12].
